Key:
Type in all cases: biochemical
FGFR2 = FGFR2 (Homo sapiens (Human), UniProt P21802); assay: FGFR enzymatic assay (FRET peptide phosphorylation), FGFR2; conditions: FGFR2 enzyme 0.01 nM, ATP 100 μM
Outline: (§1)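 Recombinant kinase was pre-incubated 5–10 min with serially diluted inhibitor in HEPES buffer (10 mM MgCl2, 5 mM DTT, pH 7.5; buffer described for FGFR3). Peptide phosphorylation ran 1 h at 25 °C and was detected by FRET after ~1 h equilibration. IC50 values come from variable-slope sigmoidal fits.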

FGFR1 = FGFR1 (Homo sapiens (Human), UniProt P11362); assay: FGFR enzymatic assay (FRET peptide phosphorylation), FGFR1; conditions: FGFR1 enzyme 0.02 nM, ATP 210 μM
Outline: as §1

FGFR3 = FGFR3 (Homo sapiens (Human), UniProt P22607); assay: FGFR enzymatic assay (FRET peptide phosphorylation), FGFR3; conditions: FGFR3 enzyme (Millipore), ATP 140 μM
Outline: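 FRET assay of peptide phosphorylation by FGFR3 in HEPES pH 7.5 buffer with MgCl2, EGTA, Tween-20 and DTT. Enzyme was pre-incubated 5-10 min with compound, and the reaction ran 1 hr at 25° C. IC50 came from a variable-slope sigmoidal fit.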

Measured: IC50

Chain of FGFR2 (P21802 22-821): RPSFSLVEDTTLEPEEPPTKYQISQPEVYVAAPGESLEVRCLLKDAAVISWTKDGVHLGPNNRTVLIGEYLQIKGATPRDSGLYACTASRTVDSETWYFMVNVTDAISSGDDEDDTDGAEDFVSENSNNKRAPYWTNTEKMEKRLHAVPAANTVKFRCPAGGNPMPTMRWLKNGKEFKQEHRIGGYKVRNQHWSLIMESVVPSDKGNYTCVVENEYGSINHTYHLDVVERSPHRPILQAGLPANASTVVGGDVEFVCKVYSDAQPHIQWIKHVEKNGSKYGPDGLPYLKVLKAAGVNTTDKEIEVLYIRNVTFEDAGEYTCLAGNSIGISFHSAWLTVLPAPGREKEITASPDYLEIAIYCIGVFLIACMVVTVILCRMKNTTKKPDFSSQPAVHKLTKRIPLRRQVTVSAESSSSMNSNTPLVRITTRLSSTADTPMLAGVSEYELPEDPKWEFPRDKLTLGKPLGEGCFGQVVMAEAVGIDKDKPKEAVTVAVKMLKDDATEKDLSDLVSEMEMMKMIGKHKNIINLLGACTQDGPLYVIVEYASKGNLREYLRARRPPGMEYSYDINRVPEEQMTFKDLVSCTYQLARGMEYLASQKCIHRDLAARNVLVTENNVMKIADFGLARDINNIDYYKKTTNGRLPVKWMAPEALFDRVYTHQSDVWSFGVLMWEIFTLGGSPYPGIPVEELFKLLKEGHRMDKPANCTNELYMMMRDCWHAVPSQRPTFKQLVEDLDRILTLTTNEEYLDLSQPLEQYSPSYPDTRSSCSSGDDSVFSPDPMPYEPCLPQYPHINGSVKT
Chain of FGFR3 (P22607 23-806): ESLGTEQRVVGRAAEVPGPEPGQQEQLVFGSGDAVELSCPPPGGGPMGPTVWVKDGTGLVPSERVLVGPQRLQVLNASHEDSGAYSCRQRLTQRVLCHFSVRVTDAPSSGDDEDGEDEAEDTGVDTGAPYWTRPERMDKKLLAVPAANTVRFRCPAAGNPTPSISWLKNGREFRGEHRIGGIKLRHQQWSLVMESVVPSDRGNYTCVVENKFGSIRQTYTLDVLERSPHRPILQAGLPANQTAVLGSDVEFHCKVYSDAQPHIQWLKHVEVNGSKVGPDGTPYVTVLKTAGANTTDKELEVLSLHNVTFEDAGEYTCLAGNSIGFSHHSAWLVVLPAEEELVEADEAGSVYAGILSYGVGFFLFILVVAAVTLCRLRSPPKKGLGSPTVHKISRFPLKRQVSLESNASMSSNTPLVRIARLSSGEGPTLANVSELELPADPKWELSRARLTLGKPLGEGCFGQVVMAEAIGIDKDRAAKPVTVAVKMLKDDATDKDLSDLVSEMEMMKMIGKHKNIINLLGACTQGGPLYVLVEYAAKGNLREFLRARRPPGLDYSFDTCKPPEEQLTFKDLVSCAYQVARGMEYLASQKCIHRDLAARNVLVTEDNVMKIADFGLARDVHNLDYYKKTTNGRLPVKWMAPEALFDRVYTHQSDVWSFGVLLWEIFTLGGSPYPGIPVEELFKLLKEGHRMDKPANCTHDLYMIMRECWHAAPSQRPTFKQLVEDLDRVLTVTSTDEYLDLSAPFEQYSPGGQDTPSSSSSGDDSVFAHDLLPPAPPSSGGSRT
Chain of FGFR1 (P11362 22-822): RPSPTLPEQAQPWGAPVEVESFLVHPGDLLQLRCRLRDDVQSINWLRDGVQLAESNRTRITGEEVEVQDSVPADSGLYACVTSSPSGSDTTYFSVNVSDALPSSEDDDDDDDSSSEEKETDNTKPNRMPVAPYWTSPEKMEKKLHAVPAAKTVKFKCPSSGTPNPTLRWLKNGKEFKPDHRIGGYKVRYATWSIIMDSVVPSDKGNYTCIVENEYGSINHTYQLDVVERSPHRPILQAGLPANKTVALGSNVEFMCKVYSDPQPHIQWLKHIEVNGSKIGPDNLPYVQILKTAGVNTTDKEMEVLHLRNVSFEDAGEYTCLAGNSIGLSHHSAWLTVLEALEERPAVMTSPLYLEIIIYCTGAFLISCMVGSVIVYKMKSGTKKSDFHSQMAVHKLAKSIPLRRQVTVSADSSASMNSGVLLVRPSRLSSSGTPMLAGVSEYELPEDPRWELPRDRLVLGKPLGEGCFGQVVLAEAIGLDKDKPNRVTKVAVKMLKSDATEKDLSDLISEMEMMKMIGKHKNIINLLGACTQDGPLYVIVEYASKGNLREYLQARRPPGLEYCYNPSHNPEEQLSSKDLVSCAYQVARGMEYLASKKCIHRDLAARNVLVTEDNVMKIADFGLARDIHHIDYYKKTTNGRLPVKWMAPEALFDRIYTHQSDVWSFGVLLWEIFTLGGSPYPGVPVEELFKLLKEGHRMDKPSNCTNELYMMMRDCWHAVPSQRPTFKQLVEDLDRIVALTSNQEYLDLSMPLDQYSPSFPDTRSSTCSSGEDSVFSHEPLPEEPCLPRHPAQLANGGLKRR

COc1cc(OC)c(F)c(N2Cc3cnc4[nH]c(CN[C@H]5CCOC5)cc4c3N(C)C2=O)c1F [Example 135, 3-(2,6-difluoro-3,5-dimethoxyphenyl)-1-methyl-8-{[(3S)-tetrahydrofuran-3-ylamino]methyl}-1,3,4,7-tetrahydro-2Hpyrrolo[3′,2′:5,6]pyrido[4,3-d]pyrimidin-2-one]
< 100 nM: all assays above

COc1cc(OC)c(F)c(N2Cc3cnc4[nH]c(CCN5CCOCC5)cc4c3N(c3cccc(F)c3F)C2=O)c1F [Example 222, 3-(2,6-difluoro-3,5-dimethoxyphenyl)-1-(2,3-difluorophenyl)-8-(2-morpholin-4-ylethyl)-1,3,4,7-tetrahydro-2H-pyrrolo[3′,2′:5,6]pyrido[4,3-d]pyrimidin-2-one]
< 100 nM: all assays above

COCCn1cc(N2C(=O)N(c3c(F)c(OC)cc(OC)c3F)Cc3cnc4[nH]ncc4c32)cn1 [Example 174, 3-(2,6-difluoro-3,5-dimethoxyphenyl)-1-[1-(2-methoxyethyl)-1H-pyrazol-4-yl]-1,3,4,7-tetrahydro-2H-pyrazolo[4′,3′:5,6]pyrido[4,3-d]pyrimidin-2-one]
< 100 nM: all assays above

COc1cc(OC)c(F)c(N2Cc3cnc4[nH]ncc4c3N(c3cnn(CC(C)(C)O)c3)C2=O)c1F [Example 173, 3-(2,6-difluoro-3,5-dimethoxyphenyl)-1-[1-(2-hydroxy-2-methylpropyl)-1H-pyrazol-4-yl]-1,3,4,7-tetrahydro-2H-pyrazolo[4′,3′:5,6]pyrido[4,3-d]pyrimidin-2-one]
< 100 nM: all assays above

COc1cc(OC)c(F)c(N2Cc3cnc4[nH]ccc4c3N(c3ccccc3)C2=O)c1F [Example 47, 3-(2,6-difluoro-3,5-dimethoxyphenyl)-1-phenyl-1,3,4,7-tetrahydro-2H-pyrrolo[3′,2′:5,6]pyrido[4,3-d]pyrimidin-2-one]
< 100 nM: all assays above

COc1cc(OC)c(F)c(N2Cc3cnc4[nH]c(CN5CCN(C)CC5)cc4c3N(c3ccc(F)cc3)C2=O)c1F [Example 190, 3-(2,6-difluoro-3,5-dimethoxyphenyl)-1-(4-fluorophenyl)-8-[(4-methylpiperazin-1-yl)methyl]-1,3,4,7-tetrahydro-2H-pyrrolo[3′,2′:5,6]pyrido[4,3-d]pyrimidin-2-one]
< 100 nM: all assays above

COc1cc(OC)c(F)c(N2Cc3cnc4[nH]ncc4c3N(C(C)C)C2=O)c1F [Example 91, 3-(2,6-difluoro-3,5-dimethoxyphenyl)-1-isopropyl-1,3,4,7-tetrahydro-2H-pyrazolo[4′,3′:5,6]pyrido[4,3-d]pyrimidin-2-one]
< 100 nM: all assays above

COc1cc(OC)c(F)c(N2Cc3cnc4[nH]c(CN5CCCC(F)(F)C5)cc4c3N(C)C2=O)c1F [Example 113, 3-(2,6-difluoro-3,5-dimethoxyphenyl)-8-[(3,3-difluoropiperidin-1-yl)methyl]-1-methyl-1,3,4,7-tetrahydro-2H-pyrrolo[3′,2′:5,6]pyrido[4,3-d]pyrimidin-2-one]
< 100 nM: all assays above

COc1cc(OC)c(F)c(N2Cc3cnc4[nH]ncc4c3N(c3cccc(C#N)c3)C2=O)c1F [Example 93, 3-[3-(2,6-difluoro-3,5-dimethoxyphenyl)-2-oxo-2,3,4,7-tetrahydro-1H-pyrazolo[4′,3′:5,6]pyrido[4,3-d]pyrimidin-1-yl]benzonitrile]
< 100 nM: all assays above

COc1cc(OC)c(F)c(N2Cc3cnc4[nH]c(CN5CCOCC5)cc4c3N(c3cccc(F)c3)C2=O)c1F [Example 212, 3-(2,6-difluoro-3,5-dimethoxyphenyl)-1-(3-fluorophenyl)-8-(morpholin-4-ylmethyl)-1,3,4,7-tetrahydro-2H-pyrrolo[3′,2′:5,6]pyrido[4,3-d]pyrimidin-2-one]
< 100 nM: all assays above

COc1cc(OC)c(F)c(N2Cc3cnc4[nH]ccc4c3C3(CCOCC3)C2=O)c1F [Example 150, 7′-(2,6-difluoro-3,5-dimethoxyphenyl)-2,3,5,6,6′,7′-hexahydrospiro[pyran-4,9′-pyrrolo[2,3-c][2,7]naphthyridin]-8′(3′H)-one]
< 100 nM: all assays above

COc1cc(OC)c(F)c(N2Cc3cnc4[nH]c(CCN5CCOCC5)cc4c3N(C3CCC3)C2=O)c1F [Example 183, 1-cyclobutyl-3-(2,6-difluoro-3,5-dimethoxyphenyl)-8-(2-morpholin-4-ylethyl)-1,3,4,7-tetrahydro-2H-pyrrolo[3′,2′:5,6]pyrido[4,3-d]pyrimidin-2-one]
< 100 nM: all assays above

COc1cc(OC)c(F)c(N2Cc3cnc4[nH]c(CNC5CCN(C)CC5)cc4c3N(C)C2=O)c1F [Example 134, 3-(2,6-difluoro-3,5-dimethoxyphenyl)-1-methyl-8-{[(1-methylpiperidin-4-yl)amino]methyl}-1,3,4,7-tetrahydro-2Hpyrrolo[3′,2′:5,6]pyrido[4,3-d]pyrimidin-2-one]
< 100 nM: all assays above

COc1cc(OC)c(F)c(N2Cc3cnc4[nH]ncc4c3N(c3cnn(C)c3)C2=O)c1F [Example 85, 3-(2,6-difluoro-3,5-dimethoxyphenyl)-1-(1-methyl-1H-pyrazol-4-yl)-1,3,4,7-tetrahydro-2H-pyrazolo[4′,3′:5,6]pyrido[4,3-d]pyrimidin-2-one]
< 100 nM: all assays above

COc1cc(OC)c(F)c(N2Cc3cnc4[nH]c(CCN5CCOCC5)cc4c3N(c3ccccc3F)C2=O)c1F [Example 196, 3-(2,6-difluoro-3,5-dimethoxyphenyl)-1-(2-fluorophenyl)-8-(2-morpholin-4-ylethyl)-1,3,4,7-tetrahydro-2H-pyrrolo[3′,2′:5,6]pyrido[4,3-d]pyrimidin-2-one]
< 100 nM: all assays above

COc1cc(OC)c(Cl)c(N2Cc3cnc4[nH]c(C(=O)N5CC(O)C5)cc4c3N(C)C2=O)c1 [Example 25, 3-(2-Chloro-3,5-dimethoxyphenyl)-8-[(3-hydroxyazetidin-1-yl)carbonyl]-1-methyl-1,3,4,7-tetrahydro-2H-pyrrolo[3′,2′:5,6]pyrido[4,3-d]pyrimidin-2-one]
< 100 nM: all assays above

COc1cc(OC)c(F)c(N2Cc3cnc4[nH]c(C(=O)N(C)C)cc4c3N(C)C2=O)c1 [Example 34, 3-(2-Fluoro-3,5-dimethoxyphenyl)-N,N,1-trimethyl-2-oxo-2,3,4,7-tetrahydro-1H-pyrrolo[3′,2′:5,6]pyrido[4,3-d]pyrimidine-8-carboxamide]
< 100 nM: all assays above

COc1cc(CN2C(=O)N(c3c(F)c(OC)cc(OC)c3F)Cc3cnc4[nH]c(CN5CCOCC5)cc4c32)ccn1 [Example 202, 3-(2,6-difluoro-3,5-dimethoxyphenyl)-1-[(2-methoxypyridin-4-yl)methyl]-8-(morpholin-4-ylmethyl)-1,3,4,7-tetrahydro-2H-pyrrolo[3′,2′:5,6]pyrido[4,3-d]pyrimidin-2-one]
< 100 nM: all assays above

Reference: patent publication US9611267B2, “Substituted tricyclic compounds as FGFR inhibitors” (Incyte Corporation, priority 2012, dated 2017)
